Test results: ChEMBL document CHEMBL1201862, “PubChem BioAssay data set” (2004)
The source made the active and inactive calls.

Tests used:
[1] = target: T1, Oxysterols receptor LXR-beta (Homo sapiens, UniProt P55055); assay type: functional, cell-based;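 also: Cell-based luminescence dose-response assay of agonist activity at LXR, run as a confirmatory counterscreen to a daf-12 agonist screen; HEK293 cells with Gal4-LXR fusion and GAL4-driven luciferase reporter; agonist potency from rising luciferase signal of a Gal4-LXR reporter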
T1 sequence (P55055 whole entry): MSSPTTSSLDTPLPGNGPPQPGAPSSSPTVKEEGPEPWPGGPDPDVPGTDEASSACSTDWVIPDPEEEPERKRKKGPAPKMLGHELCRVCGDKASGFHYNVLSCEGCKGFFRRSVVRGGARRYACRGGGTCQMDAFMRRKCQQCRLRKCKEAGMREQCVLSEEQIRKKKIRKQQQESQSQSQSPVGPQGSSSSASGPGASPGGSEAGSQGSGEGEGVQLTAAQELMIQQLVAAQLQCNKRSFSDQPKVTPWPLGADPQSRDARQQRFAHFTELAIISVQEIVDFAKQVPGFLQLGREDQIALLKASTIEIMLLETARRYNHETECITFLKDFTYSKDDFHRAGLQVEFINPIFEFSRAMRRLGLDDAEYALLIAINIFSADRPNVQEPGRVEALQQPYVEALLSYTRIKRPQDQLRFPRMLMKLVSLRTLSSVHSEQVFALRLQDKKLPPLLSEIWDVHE

cells [2] = assay: cells
cells [3] = assay type: functional, cell-based
[4] = target: T2, Trace amine-associated receptor 1 (Homo sapiens, UniProt Q96RJ0); assay: Fluorescence-based cell-based high throughput dose response assay to identify agonists of the human trace amine associated receptor 1 (TAAR1).; assay type: functional
T2 sequence (Q96RJ0 whole entry): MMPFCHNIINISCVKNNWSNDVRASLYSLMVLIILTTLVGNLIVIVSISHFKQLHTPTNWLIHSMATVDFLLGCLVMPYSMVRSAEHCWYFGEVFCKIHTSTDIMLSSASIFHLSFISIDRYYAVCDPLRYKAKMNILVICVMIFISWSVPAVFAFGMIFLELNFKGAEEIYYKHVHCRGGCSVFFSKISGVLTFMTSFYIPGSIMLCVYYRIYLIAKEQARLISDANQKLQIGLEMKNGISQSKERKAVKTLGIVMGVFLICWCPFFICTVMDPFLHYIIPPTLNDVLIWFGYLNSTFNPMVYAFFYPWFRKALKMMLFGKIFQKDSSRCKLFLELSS

[5] = target: T2, Trace amine-associated receptor 1; assay: Counterscreen for agonists of the human trace amine associated receptor 1 (hTAAR1): Fluorescence-based cell-based high throughput dose response assay to identify hTAAR1 agonist that also desensitize TAAR1 receptor response.; assay type: functional
cells [6] = assay type: functional, cell-based; remark: listed apart in the source
Kallikrein-7 = Kallikrein-7 (Homo sapiens, UniProt P49862); assay: Fluorescence Intensity-based biochemical primary high throughput dose response assay to identify activators of kallikrein-7 (K7) zymogen.
Sequence of Kallikrein-7 (P49862 whole entry, the tested form may be a part): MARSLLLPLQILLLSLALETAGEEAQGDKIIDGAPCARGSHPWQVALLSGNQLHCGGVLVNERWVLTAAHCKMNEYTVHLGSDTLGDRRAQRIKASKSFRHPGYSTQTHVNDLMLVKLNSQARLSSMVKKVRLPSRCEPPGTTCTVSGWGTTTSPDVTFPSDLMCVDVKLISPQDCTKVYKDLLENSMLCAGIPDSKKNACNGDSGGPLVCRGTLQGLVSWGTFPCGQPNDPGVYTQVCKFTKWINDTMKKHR

[7] = target: Disintegrin and metalloproteinase domain-containing protein 17 (Homo sapiens, UniProt P78536); assay: exosite inhibitors of ADAM17, dose response, biochemical (AID 743260)
Sequence of Disintegrin and metalloproteinase domain-containing protein 17 (P78536 whole entry, the tested form may be a part): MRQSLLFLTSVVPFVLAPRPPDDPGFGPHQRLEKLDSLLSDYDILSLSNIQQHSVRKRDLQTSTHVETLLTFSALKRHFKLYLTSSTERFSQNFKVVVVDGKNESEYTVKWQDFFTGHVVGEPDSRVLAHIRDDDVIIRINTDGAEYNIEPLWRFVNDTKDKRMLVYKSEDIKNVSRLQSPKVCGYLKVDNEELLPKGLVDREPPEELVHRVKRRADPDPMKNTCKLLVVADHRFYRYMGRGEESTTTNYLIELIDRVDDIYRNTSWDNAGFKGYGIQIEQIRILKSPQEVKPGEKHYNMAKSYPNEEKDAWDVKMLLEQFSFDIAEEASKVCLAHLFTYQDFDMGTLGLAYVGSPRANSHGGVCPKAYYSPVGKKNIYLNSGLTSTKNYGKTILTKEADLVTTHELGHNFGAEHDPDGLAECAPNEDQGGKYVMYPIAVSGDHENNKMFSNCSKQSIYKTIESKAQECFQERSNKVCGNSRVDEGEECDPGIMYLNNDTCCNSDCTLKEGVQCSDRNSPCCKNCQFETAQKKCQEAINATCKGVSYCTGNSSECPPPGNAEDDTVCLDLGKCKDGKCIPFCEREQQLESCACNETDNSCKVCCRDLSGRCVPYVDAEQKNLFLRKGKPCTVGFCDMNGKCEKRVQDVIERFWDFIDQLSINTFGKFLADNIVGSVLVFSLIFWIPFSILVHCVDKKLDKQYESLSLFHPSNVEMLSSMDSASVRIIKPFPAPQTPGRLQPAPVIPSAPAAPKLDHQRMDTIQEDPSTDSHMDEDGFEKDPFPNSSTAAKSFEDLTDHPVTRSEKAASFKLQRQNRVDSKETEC

[8] = ADAM10 protease inhibitors, dose response, selectivity assay for ADAM17 exosite inhibitor project, biochemical, FRET peptide substrate, recombinant human ADAM10 (AID 743259);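 also: ADAM10 enzyme cleaving a FRET peptide substrate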
[9] = target: T3, High affinity choline transporter 1 (Homo sapiens, UniProt Q9GZV3); assay: CHT inhibitors, dose response, cell-based, 5-point CRC, membrane potential dye (AID 504840); assay type: functional
T3 sequence (Q9GZV3 whole entry): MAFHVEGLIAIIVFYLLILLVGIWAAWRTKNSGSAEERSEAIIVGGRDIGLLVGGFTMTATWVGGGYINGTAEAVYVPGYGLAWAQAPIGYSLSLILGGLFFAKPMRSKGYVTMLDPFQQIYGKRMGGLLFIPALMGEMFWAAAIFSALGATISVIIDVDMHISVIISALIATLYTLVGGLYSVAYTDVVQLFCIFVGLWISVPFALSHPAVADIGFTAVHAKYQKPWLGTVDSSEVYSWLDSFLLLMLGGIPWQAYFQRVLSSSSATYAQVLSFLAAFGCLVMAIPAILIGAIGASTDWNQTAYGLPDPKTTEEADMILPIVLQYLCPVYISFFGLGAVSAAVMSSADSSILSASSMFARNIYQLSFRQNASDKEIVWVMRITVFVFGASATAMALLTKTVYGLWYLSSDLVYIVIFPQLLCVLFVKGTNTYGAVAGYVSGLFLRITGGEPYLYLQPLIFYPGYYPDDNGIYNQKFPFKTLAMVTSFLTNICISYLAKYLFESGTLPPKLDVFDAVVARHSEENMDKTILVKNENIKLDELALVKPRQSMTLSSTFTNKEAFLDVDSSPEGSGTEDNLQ

[10] = target: T4, Carboxy-terminal domain RNA polymerase II polypeptide A small phosphatase 1 (Homo sapiens, UniProt Q9GZU7); assay: inhibitors of CTDSP1, concentration-response testing, biochemical assay, absorbance-based, actives from ultra-high-throughput screening (AID 540297); assay type: functional
T4 sequence (Q9GZU7 whole entry): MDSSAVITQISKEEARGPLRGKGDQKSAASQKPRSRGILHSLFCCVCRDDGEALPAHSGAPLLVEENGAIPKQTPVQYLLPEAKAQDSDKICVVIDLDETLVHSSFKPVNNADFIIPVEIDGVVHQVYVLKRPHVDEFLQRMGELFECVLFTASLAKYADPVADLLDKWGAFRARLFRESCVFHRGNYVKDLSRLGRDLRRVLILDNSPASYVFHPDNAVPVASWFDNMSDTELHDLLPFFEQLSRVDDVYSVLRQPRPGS

Fatty acid synthase [11] = target: T5, Fatty acid synthase (Homo sapiens, UniProt P49327); assay: FAS thioesterase domain inhibitors, dose response, biochemical, endpoint fluorescence intensity, uHTS hits (AID 624327); assay type: functional;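 also: fluorescence from hydrolysis of an O-methyl fluorescein acyl ester substrate by the enzyme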
T5 sequence (P49327 whole entry, the tested form may be a part): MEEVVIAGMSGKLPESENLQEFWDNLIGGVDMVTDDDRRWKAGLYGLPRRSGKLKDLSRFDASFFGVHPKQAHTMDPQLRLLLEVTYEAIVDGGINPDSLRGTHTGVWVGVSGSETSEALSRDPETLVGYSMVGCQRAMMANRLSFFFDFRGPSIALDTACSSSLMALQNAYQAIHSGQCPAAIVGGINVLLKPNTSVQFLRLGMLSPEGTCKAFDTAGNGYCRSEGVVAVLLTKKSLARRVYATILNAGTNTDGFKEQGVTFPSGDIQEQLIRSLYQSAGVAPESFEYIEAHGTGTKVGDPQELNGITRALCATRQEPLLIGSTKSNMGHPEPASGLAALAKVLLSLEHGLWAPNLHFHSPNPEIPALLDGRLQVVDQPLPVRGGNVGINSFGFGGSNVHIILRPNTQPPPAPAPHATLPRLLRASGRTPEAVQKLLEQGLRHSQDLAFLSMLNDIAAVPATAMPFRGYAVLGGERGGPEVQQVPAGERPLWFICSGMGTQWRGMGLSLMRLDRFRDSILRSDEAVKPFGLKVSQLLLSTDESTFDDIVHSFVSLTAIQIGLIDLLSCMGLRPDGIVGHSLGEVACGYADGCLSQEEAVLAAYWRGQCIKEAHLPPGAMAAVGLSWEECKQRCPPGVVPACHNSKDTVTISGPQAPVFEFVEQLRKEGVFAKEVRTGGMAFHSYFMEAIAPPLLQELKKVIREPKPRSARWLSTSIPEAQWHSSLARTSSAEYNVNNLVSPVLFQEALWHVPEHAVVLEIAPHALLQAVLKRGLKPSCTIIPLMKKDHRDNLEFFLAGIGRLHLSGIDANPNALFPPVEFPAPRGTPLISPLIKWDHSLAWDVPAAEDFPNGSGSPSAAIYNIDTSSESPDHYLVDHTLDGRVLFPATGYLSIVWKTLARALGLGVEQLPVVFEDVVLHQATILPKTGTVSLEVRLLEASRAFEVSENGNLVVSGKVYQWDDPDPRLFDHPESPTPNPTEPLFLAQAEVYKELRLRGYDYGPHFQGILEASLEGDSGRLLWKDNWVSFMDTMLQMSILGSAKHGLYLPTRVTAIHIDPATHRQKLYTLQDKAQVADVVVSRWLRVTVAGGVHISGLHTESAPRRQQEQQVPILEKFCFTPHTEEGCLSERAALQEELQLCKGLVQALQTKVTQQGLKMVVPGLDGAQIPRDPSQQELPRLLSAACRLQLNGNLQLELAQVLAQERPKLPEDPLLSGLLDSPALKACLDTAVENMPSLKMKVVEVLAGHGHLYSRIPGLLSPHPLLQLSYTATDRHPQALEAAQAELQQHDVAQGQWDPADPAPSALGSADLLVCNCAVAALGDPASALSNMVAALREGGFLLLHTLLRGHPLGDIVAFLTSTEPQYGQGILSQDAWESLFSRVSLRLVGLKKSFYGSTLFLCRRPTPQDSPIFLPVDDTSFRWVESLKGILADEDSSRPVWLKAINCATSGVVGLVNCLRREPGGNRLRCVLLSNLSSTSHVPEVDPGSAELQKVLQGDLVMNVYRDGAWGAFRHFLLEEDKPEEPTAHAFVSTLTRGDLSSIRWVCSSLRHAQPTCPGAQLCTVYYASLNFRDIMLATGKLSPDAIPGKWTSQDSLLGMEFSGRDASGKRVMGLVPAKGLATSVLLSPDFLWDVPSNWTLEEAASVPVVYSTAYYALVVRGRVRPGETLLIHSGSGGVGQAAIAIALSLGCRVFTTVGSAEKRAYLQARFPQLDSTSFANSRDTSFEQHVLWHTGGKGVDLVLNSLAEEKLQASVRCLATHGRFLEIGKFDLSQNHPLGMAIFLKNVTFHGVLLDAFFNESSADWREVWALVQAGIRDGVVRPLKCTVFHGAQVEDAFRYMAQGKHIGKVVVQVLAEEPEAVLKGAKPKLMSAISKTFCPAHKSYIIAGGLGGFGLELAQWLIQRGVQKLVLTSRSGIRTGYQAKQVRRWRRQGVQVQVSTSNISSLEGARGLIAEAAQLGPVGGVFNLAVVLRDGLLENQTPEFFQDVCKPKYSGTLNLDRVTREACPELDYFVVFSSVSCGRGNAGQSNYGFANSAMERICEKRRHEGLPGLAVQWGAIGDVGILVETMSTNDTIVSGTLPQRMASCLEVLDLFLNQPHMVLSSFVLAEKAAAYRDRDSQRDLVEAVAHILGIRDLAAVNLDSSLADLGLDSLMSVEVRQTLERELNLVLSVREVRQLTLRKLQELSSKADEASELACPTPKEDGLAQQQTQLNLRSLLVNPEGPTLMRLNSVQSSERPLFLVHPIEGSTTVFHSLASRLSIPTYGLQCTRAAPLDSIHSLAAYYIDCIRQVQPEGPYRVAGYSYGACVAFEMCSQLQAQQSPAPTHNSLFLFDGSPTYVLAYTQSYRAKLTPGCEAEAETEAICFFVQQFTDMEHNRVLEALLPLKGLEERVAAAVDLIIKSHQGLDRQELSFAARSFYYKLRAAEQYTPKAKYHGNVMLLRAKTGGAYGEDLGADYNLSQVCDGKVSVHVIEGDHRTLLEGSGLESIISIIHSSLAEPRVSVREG

Fatty acid synthase [12] = target: T5, Fatty acid synthase; assay: FAS thioesterase domain inhibitors, dose response, biochemical, kinetic fluorescence intensity (AID 624326); assay type: functional;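 also: rate of fluorescence rise from hydrolysis of a fluorogenic O-methyl fluorescein ester substrate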
[13] = target: T6, Histone-lysine N-methyltransferase NSD2 (Homo sapiens, UniProt O96028); assay type: biochemical
T6 sequence (O96028 whole entry): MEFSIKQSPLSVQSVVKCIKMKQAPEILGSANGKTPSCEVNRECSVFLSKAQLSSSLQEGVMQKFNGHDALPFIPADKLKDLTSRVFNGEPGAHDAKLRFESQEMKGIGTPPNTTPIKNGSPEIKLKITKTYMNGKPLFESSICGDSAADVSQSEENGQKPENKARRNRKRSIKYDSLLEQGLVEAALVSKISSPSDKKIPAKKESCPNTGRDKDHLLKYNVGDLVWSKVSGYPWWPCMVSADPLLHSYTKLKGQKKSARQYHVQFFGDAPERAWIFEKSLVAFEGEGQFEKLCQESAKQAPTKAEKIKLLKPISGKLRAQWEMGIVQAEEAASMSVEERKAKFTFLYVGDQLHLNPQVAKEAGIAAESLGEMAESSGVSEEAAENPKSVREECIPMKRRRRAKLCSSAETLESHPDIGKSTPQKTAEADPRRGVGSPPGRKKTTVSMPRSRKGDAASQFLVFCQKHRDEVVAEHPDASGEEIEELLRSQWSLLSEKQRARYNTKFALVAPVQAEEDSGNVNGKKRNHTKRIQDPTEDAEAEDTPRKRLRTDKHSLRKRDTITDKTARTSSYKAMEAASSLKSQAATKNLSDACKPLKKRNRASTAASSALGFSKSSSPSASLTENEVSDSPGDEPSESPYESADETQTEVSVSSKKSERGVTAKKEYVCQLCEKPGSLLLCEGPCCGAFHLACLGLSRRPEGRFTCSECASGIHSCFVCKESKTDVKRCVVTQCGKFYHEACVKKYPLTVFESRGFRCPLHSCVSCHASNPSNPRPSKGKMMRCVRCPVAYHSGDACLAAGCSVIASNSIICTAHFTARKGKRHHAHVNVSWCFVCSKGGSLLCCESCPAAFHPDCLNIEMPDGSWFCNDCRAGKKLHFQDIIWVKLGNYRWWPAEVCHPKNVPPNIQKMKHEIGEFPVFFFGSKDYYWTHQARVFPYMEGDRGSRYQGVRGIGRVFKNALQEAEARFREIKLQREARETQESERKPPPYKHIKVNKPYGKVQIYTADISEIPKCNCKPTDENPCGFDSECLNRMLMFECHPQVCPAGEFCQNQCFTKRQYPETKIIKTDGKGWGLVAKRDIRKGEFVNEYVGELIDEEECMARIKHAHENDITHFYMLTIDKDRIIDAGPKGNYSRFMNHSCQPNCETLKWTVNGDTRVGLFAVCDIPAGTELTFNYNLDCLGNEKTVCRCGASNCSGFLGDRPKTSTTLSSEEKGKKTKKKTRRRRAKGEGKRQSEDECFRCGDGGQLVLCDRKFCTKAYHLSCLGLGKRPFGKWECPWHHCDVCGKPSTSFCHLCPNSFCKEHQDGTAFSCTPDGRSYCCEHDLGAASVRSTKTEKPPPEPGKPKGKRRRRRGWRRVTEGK

[14] = target: T7, Rac GTPase-activating protein 1 (Homo sapiens, UniProt Q9H0H5); assay: MgcRacGAP GTPase-activating activity inhibitors, confirmation, biochemical, ADP Hunter fluorescence, primary and confirmatory (AID 624330); assay type: functional
T7 sequence (Q9H0H5 whole entry): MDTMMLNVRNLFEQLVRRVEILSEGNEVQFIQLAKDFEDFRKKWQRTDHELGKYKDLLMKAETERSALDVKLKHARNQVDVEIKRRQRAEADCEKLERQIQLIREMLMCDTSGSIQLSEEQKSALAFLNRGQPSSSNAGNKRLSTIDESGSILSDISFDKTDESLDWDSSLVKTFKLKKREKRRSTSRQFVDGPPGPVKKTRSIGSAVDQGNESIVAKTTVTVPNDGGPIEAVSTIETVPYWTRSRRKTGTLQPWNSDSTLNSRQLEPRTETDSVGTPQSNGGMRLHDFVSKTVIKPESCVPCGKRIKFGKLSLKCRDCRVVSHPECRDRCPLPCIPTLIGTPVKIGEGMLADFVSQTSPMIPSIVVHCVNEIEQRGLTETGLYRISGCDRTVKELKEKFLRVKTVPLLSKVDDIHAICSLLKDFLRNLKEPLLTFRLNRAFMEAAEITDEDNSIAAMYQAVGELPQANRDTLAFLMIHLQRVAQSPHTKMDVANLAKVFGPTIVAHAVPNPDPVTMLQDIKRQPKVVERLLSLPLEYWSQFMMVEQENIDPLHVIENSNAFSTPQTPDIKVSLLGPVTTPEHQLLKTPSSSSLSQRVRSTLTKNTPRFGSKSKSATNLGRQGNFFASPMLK

[15] = target: T8, DNA repair protein RAD52 homolog (Homo sapiens, UniProt P43351); assay type: functional, biochemical
T8 sequence (P43351 whole entry): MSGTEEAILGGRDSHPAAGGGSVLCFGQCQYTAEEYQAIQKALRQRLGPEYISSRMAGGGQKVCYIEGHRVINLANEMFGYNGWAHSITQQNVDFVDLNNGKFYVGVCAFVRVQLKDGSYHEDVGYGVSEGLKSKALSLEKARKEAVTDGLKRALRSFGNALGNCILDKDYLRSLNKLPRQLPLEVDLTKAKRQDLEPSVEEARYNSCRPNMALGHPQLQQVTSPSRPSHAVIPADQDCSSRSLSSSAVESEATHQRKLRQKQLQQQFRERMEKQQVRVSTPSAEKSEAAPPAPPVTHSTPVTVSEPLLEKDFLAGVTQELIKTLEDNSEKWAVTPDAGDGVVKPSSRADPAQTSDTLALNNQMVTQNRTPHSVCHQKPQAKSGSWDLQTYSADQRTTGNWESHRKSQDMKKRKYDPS

Nonstructural protein 1 = Nonstructural protein 1 (Influenza A virus, UniProt Q194T2); assay type: functional, Influenza A virus (A/California/07/2009(H1N1))
Sequence of Nonstructural protein 1 (Q194T2 whole entry): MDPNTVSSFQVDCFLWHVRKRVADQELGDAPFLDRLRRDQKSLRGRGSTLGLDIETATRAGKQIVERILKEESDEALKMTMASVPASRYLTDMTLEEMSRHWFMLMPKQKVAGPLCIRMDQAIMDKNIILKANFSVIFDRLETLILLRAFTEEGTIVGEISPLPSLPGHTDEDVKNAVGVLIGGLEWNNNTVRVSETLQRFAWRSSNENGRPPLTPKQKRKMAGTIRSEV

P388/ADR = assay: cells; assay type: functional; settings: Mus musculus
SN12K1 = assay: cells; assay type: functional; settings: Homo sapiens
P388 = assay: cells; assay type: functional; settings: Mus musculus

SMILES: CCOC(=O)c1c(C)nc(-c2ccccc2)nc1N
- EC50 [1]: > 67.5 µM (inactive)
- EC50 (cells [2]): > 67.5 µM (inactive)

SMILES: NS(=O)(=O)c1ccc(CCNC(=O)CNCCc2ccccc2)cc1
- IC50 (cells [3]): > 29.9 µM (inactive)
- EC50 [4]: 1.07 µM (active)
- IC50 [5]: 3.56 µM (active)
- EC50 (cells [6]): > 29.9 µM (inactive)

SMILES: Cc1ccc(C)c(NC(=O)c2ccc3ccccc3n2)c1
- EC50 [1]: > 67.5 µM (inactive)
- EC50 (cells [2]): > 67.5 µM (inactive)

SMILES: O=C(O)CCC(=O)NN1C(=O)c2ccccc2NC1c1ccc(F)cc1 (stereo not given)
- EC50 (Kallikrein-7): > 0.286 µM (active)

SMILES: O=C(/C=C/Nc1ccc(F)cc1)c1cccs1
- EC50 [1]: > 67.6 µM (inactive)
- EC50 (cells [2]): > 67.6 µM (inactive)

SMILES: CCOC(=O)C(NCCc1ccccc1)(NC(=O)CC)C(F)(F)F (stereo not given)
- IC50 (cells [3]): > 29.9 µM (inactive)
- EC50 [4]: 1.81 µM (active)
- IC50 [5]: 8.43 µM (active)
- EC50 (cells [6]): > 29.9 µM (inactive)

SMILES: Cc1cc(N(C)C)nc(Nc2ccccc2)n1
- IC50 (cells [3]): > 29.9 µM (inactive)
- EC50 [4]: 0.128 µM (active)
- IC50 [5]: 0.273 µM (active)
- EC50 (cells [6]): > 29.9 µM (inactive)

SMILES: CCCCC[C@@H](C)N1C[C@@H](COCc2ccccc2)Oc2cc(N3CCC[C@H]3CO)ccc2S1(=O)=O
- IC50 [7]: > 69.5 µM (inactive)
- IC50 [8]: 9.07 µM (active)

SMILES: COc1cccc(C(=O)N[C@H](C(=O)N2CCC[C@H]2C(=O)NCCc2ccccc2Cl)C2CCCCC2)c1
- IC50 (cells [3]): > 29.9 µM (inactive)
- EC50 [4]: 6.72 µM (active)
- IC50 [5]: 6.66 µM (active)
- EC50 (cells [6]): > 29.9 µM (inactive)

SMILES: Cc1ccc(-n2[nH]c(C)c(/C=N/Nc3ccc([N+](=O)[O-])cc3[N+](=O)[O-])c2=O)cc1C
- IC50 [9]: 10.5 µM (active)
- IC50 [10]: 3.32 µM (active)
- IC50 (Fatty acid synthase [11]): 53.5 µM (inactive)
- IC50 (Fatty acid synthase [12]): 32.9 µM (inactive)
- AC50 [13]: 14 µM (active)

SMILES: CCN1CCN(c2ccc(/N=C/c3ccccc3O)cc2)CC1
- IC50 [14]: 20.8 µM (active)
- AC50 [15]: 2.23 µM (active)

SMILES: NS(=O)(=O)c1ccc(N/N=C/C=C/c2ccccc2[N+](=O)[O-])cc1
- IC50 [7]: > 69.5 µM (inactive)
- IC50 [8]: 13.7 µM (inactive)

SMILES: COc1cc2c(ccc3c4cc(OC)c(OC)cc4c[n+](C)c23)cc1O [FAGARONINE]
- IC50 (Nonstructural protein 1): > 100 µM (active)
- GI50 (P388/ADR): 66.5 µM (inactive)
- GI50 (SN12K1): 1.95 µM (inactive)
- GI50 (P388): 0.489 µM (active)
- IC50 [14]: 42.5 µM (active)
- AC50 [15]: < 0.244 µM (active)
